# Assay results as given in patent US20230093861A1, “RAPAMYCIN ANALOGS AS MTOR INHIBITORS” (Revolution Medicines, Inc., priority 2017, published 2023).
# Legend:
# [1] = tested on: P-4E-BP1 (T37/46); test: Cell based AlphaLISA assay, inhibition of P-4E-BP1 (T37/46) (mTORC1 substrate phosphorylation) in MDA-MB-468 cells; details: Homo sapiens, MDA-MB-468, 4 h, AlphaLISA, two to four hours at 37° C., read-out: pIC50 for Inhibition of mTORC1 and mTORC2 Substrate Phosphorylation, P-4E-BP1-(T37/46) (converted)
# Procedure: (§1) Cell Based AlphaLISA Assays for Determining IC50 for Inhibition of P-Akt (S473), P-4E-BP1 (T37/46), and P-P70S6K (T389) in MDA-MB-468 Cells
# (§2) mTOR Kinase Cellular Assay
# (§3) To measure functional activity of mTORC1 and mTORC2 in cells the phosphorylation of 4EBP1 (Thr37/46) and P70S6K (Thr389), and AKT1/2/3 (Ser473) was monitored using AlphaLisa SureFire Ultra Kits (Perkin Elmer). […] Incubations were terminated by removal of the assay buffer and addition of lysis buffer provided with the assay kit. Samples were processed according to the manufacturer's instructions. The Alpha signal from the respective phosphoproteins was measured in duplicate using a microplate reader (Envision, Perkin-Elmer or Spectramax M5, Molecular Devices). Inhibitor concentration response curves were analyzed using normalized IC50 regression curve fitting with control based normalization.
# [2] = tested on: P-P70S6K (T389); test: Cell based AlphaLISA assay, inhibition of P-P70S6K (T389) (mTORC1 substrate phosphorylation) in MDA-MB-468 cells; details: Homo sapiens, 4 h, AlphaLISA, two to four hours at 37° C., read-out: pIC50 for Inhibition of mTORC1 and mTORC2 Substrate Phosphorylation, P-P70S6K-(T389) (converted)
# Procedure: as §1, §2, §3
# [3] = tested on: P-Akt (S473); test: Cell based AlphaLISA assay, inhibition of P-Akt (S473) (mTORC2 substrate phosphorylation) in MDA-MB-468 cells; details: Homo sapiens, MDA-MB-468, 4 h, AlphaLISA, two to four hours at 37° C., read-out: pIC50 for Inhibition of mTORC1 and mTORC2 Substrate Phosphorylation, p-AKT 1/2/3 -(S473) (converted)
# Procedure: as §1, §2, §3
Compound,IC50 [1],IC50 [2],IC50 [3]
CO[C@H]1C[C@@H]2CC[C@@H](C)[C@@](O)(O2)C(=O)C(=O)N2CCCC[C@H]2C(=O)O[C@H]([C@H](C)C[C@@H]2CC[C@H](n3cc(CCCC(=O)NCCOCCOCCOCCC(=O)NCCOCCOCCOCCC(=O)NCCCCn4nc(-c5ccc6oc(N)nc6c5)c5c(N)ncnc54)nn3)[C@H](OC)C2)CC(=O)[C@H](C)/C=C(\C)[C@@H](O)[C@@H](OC)C(=O)[C@H](C)C[C@H](C)/C=C/C=C/C=C/1C [Example 130],0.00316 to 0.0316 µM,0.001 to 0.01 µM,0.00316 to 0.0316 µM
CO[C@H]1C[C@@H]2CC[C@@H](C)[C@@](O)(O2)C(=O)C(=O)N2CCCC[C@H]2C(=O)O[C@H]([C@H](C)C[C@@H]2CC[C@H](n3cc(-c4cnc(N5CCN(c6ncc(C(=O)NCCOCCOCCOCCOCCOCCC(=O)NCCCCn7nc(-c8cc9cc(O)ccc9[nH]8)c8c(N)ncnc87)cn6)CC5)nc4)nn3)[C@H](OC)C2)CC(=O)[C@H](C)/C=C(\C)[C@@H](O)[C@@H](OC)C(=O)[C@H](C)C[C@H](C)/C=C/C=C/C=C/1C [Example 119],> 1 µM,< 0.001 µM,> 1 µM
CO[C@H]1C[C@@H]2CC[C@@H](C)[C@@](O)(O2)C(=O)C(=O)N2CCCC[C@H]2C(=O)O[C@H]([C@H](C)C[C@@H]2CC[C@@H](OCCC(C)(C)Cc3cn(CCOCCOCCOCCOCCOCCOCCOCCOCCC(=O)NCCCCn4nc(-c5ccc6oc(N)nc6c5)c5c(N)ncnc54)nn3)[C@H](OC)C2)CC(=O)[C@H](C)/C=C(\C)[C@@H](O)[C@@H](OC)C(=O)[C@H](C)C[C@H](C)/C=C/C=C/C=C/1C [Example 58],< 0.00316 µM,< 0.001 µM,< 0.00316 µM
CO[C@H]1C[C@@H]2CC[C@@H](C)[C@@](O)(O2)C(=O)C(=O)N2CCCC[C@H]2C(=O)O[C@H]([C@H](C)C[C@@H]2CC[C@@H](OCc3cccc(-c4cnc(N5CCN(Cc6cn(CCOCCOCCOCCOCCC(=O)NCCCCn7nc(-c8ccc9oc(N)nc9c8)c8c(N)ncnc87)nn6)CC5)nc4)c3)[C@H](OC)C2)CC(=O)[C@H](C)/C=C(\C)[C@@H](O)[C@@H](OC)C(=O)[C@H](C)C[C@H](C)/C=C/C=C/C=C/1C [Example 21],< 0.00316 µM,< 0.001 µM,0.00316 to 0.0316 µM
CO/N=C1/C[C@@H]([C@H](C)C[C@@H]2CC[C@H](n3cc(COC(=O)NCCOCCOCCOCCC(=O)NCCOCCOCCC(=O)NCCCCn4nc(-c5cc6cc(O)ccc6[nH]5)c5c(N)ncnc54)nn3)[C@H](OC)C2)OC(=O)[C@@H]2CCCCN2C(=O)C(=O)[C@]2(O)O[C@@H](CC[C@H]2C)C[C@H](OC)/C(C)=C/C=C/C=C/[C@@H](C)C[C@@H](C)C(=O)[C@H](OC)[C@H](O)/C(C)=C/[C@H]1C [Example 152],> 1 µM,0.01 to 1 µM,> 1 µM
CO[C@H]1C[C@@H]2CC[C@@H](C)[C@@](O)(O2)C(=O)C(=O)N2CCCC[C@H]2C(=O)O[C@H]([C@H](C)C[C@@H]2CC[C@H](n3cc(CCCC(=O)NCCOCCOCCOCCC(=O)NCCOCCOCCC(=O)NCCCCn4nc(-c5cc6cc(O)ccc6[nH]5)c5c(N)ncnc54)nn3)[C@H](OC)C2)C[C@@H](OC)[C@H](C)/C=C(\C)[C@@H](O)[C@@H](OC)C(=O)[C@H](C)C[C@H](C)/C=C/C=C/C=C/1C [Example 163],> 1 µM,0.01 to 1 µM,> 1 µM
CO[C@H]1C[C@@H]2CC[C@@H](C)[C@@](O)(O2)C(=O)C(=O)N2CCCC[C@H]2C(=O)O[C@H]([C@H](C)C[C@@H]2CC[C@@H](OCCCCc3cn(CCOCCOCCOCCOCCOCCOCCOCCOCCC(=O)NCCCCn4nc(I)c5c(N)ncnc54)nn3)[C@H](OC)C2)CC(=O)[C@H](C)/C=C(\C)[C@@H](O)[C@@H](OC)C(=O)[C@H](C)C[C@H](C)/C=C/C=C/C=C/1C [Example 4],> 1 µM,< 0.001 µM,> 1 µM
CO[C@H]1C[C@@H]2CC[C@@H](C)[C@@](O)(O2)C(=O)C(=O)N2CCCC[C@H]2C(=O)O[C@H]([C@H](C)C[C@@H]2CC[C@@H](OCc3cccc(-c4cnc(N5CCN(S(=O)(=O)CCc6cn(CCOCCOCCOCCC(=O)NCCCCn7nc(-c8ccc9oc(N)nc9c8)c8c(N)ncnc87)nn6)CC5)nc4)c3)[C@H](OC)C2)CC(=O)[C@H](C)/C=C(\C)[C@@H](O)[C@@H](OC)C(=O)[C@H](C)C[C@H](C)/C=C/C=C/C=C/1C [Example 27],< 0.00316 µM,< 0.001 µM,0.00316 to 0.0316 µM
CO[C@H]1C[C@@H]2CC[C@@H](C)[C@@](O)(O2)C(=O)C(=O)N2CCCC[C@H]2C(=O)O[C@H]([C@H](C)C[C@@H]2CC[C@@H](OCCCCc3cn(CCOCCOCCOCCOCCOCCOCCC(=O)N4CCC(Cn5nc(-c6ccc7oc(N)nc7c6)c6c(N)ncnc65)CC4)nn3)[C@H](OC)C2)CC(=O)[C@H](C)/C=C(\C)[C@@H](O)[C@@H](OC)C(=O)[C@H](C)C[C@H](C)/C=C/C=C/C=C/1C [Example 91],< 0.00316 µM,< 0.001 µM,< 0.00316 µM
CO[C@H]1C[C@@H]2CC[C@@H](C)[C@@](O)(O2)C(=O)C(=O)N2CCCC[C@H]2C(=O)O[C@H]([C@H](C)C[C@@H]2CC[C@@H](O)[C@H](OC)C2)C[C@@H](O)[C@H](C)/C=C(\C)[C@@H](O)[C@@H](OC)C(=NOCc2cn(CCOCCOCCOCCOCCOCCOCCOCCOCCC(=O)NCCCCn3nc(-c4cc5cc(O)ccc5[nH]4)c4c(N)ncnc43)nn2)[C@H](C)C[C@H](C)/C=C/C=C/C=C/1C [Example 94],0.00316 to 0.0316 µM,0.001 to 0.01 µM,> 1 µM
CO[C@H]1C[C@@H]2CC[C@@H](C)[C@@](O)(O2)C(=O)C(=O)N2CCCC[C@H]2C(=O)O[C@H]([C@H](C)C[C@@H]2CC[C@@H](O)[C@H](OC)C2)C[C@@H](OC)[C@H](C)/C=C(\C)[C@@H](O)[C@@H](OC)/C(=N\OCc2cn(CCOCCOCCOCCOCCOCCOCCC(=O)NCCCCn3nc(-c4ccc5oc(N)nc5c4)c4c(N)ncnc43)nn2)[C@H](C)C[C@H](C)/C=C/C=C/C=C/1C [Example 15],0.00316 to 0.0316 µM,0.001 to 0.01 µM,0.0316 to 1 µM
CO[C@H]1C[C@@H]2CC[C@@H](C)[C@@](O)(O2)C(=O)C(=O)N2CCCC[C@H]2C(=O)O[C@H]([C@H](C)C[C@@H]2CC[C@@H](O)[C@H](OC)C2)C[C@@H](O)[C@H](C)/C=C(\C)[C@@H](O)[C@@H](OC)C(=NOCc2cn(-c3cnc(N4CCN(c5ncc(C(=O)NCCOCCOCCC(=O)NCCCCn6nc(-c7ccc8oc(N)nc8c7)c7c(N)ncnc76)cn5)CC4)nc3)nn2)[C@H](C)C[C@H](C)/C=C/C=C/C=C/1C [Example 192],0.00316 to 0.0316 µM,< 0.001 µM,> 1 µM
CO[C@H]1C[C@@H]2CC[C@@H](C)[C@@](O)(O2)C(=O)C(=O)N2CCCC[C@H]2C(=O)O[C@H]([C@H](C)C[C@@H]2CC[C@H](n3cc(COC(=O)NCCOCCOCCOCCC(=O)NCCOCCOCCC(=O)NCCCCn4nc(-c5ccc6oc(N)nc6c5)c5c(N)ncnc54)nn3)[C@H](OC)C2)C/C(=N/OCc2ccccc2)[C@H](C)/C=C(\C)[C@@H](O)[C@@H](OC)C(=O)[C@H](C)C[C@H](C)/C=C/C=C/C=C/1C [Example 154],> 1 µM,> 1 µM,> 1 µM
CO[C@H]1C[C@@H]2CC[C@@H](C)[C@@](O)(O2)C(=O)C(=O)N2CCCC[C@H]2C(=O)O[C@H]([C@H](C)C[C@@H]2CC[C@@H](OCCCCc3cn(CCOCCOCCOCCOCCOCCOCCOCCOCCC(=O)NCCS(=O)(=O)c4ccc(C(=O)N5CCOc6ccc(-c7ccc(N)nc7)cc6C5)c(C)c4F)nn3)[C@H](OC)C2)CC(=O)[C@H](C)/C=C(\C)[C@@H](O)[C@@H](OC)C(=O)[C@H](C)C[C@H](C)/C=C/C=C/C=C/1C [Example 96],< 0.00316 µM,< 0.001 µM,0.00316 to 0.0316 µM
CO[C@H]1C[C@@H]2CC[C@@H](C)[C@@](O)(O2)C(=O)C(=O)N2CCCC[C@H]2C(=O)O[C@H]([C@H](C)C[C@@H]2CC[C@H](n3nncc3-c3cccc(-c4cnc(N5CCN(Cc6cn(CCOCCOCCOCCOCCC(=O)NCCCCn7nc(-c8ccc9oc(N)nc9c8)c8c(N)ncnc87)nn6)C(CO)C5)nc4)c3)[C@H](OC)C2)CC(=O)[C@H](C)/C=C(\C)[C@@H](O)[C@@H](OC)C(=O)[C@H](C)C[C@H](C)/C=C/C=C/C=C/1C (stereo partly shown) [Example 33],0.00316 to 0.0316 µM,0.001 to 0.01 µM,0.00316 to 0.0316 µM
CO[C@@H]1C[C@H](C[C@@H](C)[C@@H]2CC(=O)[C@H](C)/C=C(\C)[C@@H](O)[C@@H](OC)C(=O)[C@H](C)C[C@H](C)/C=C/C=C/C=C(\C)[C@@H](c3ccco3)C[C@@H]3CC[C@@H](C)[C@@](O)(O3)C(=O)C(=O)N3CCCC[C@H]3C(=O)O2)CC[C@H]1OCCCCc1cn(CCOCCOCCOCCOCCOCCOCCC(=O)NCCCCn2nc(-c3ccc4oc(N)nc4c3)c3c(N)ncnc32)nn1 (stereo in doubt) [Example 19],,< 0.001 µM,
